Experimental data taken from patent US9526721B2, “Tetrahydroprotoberbine compounds and uses thereof in the treatment of neurological, psychiatric and neurodegenerative diseases” (priority 2012, dated 2016).
Like-named read-outs stand apart in the source and are kept apart here. Marks after values point to notes of the source that are not given here.

How the values were obtained:
[1] = target: T1, D2L (Homo sapiens, UniProt P14416); assay: Receptor binding, dopamine D2L; details: present data; comparison ligand 0.16 nM Spiperone; read-out: D2L (Ki)
T1 construct: host or cells: CHO cells
T1 sequence (P14416 whole entry): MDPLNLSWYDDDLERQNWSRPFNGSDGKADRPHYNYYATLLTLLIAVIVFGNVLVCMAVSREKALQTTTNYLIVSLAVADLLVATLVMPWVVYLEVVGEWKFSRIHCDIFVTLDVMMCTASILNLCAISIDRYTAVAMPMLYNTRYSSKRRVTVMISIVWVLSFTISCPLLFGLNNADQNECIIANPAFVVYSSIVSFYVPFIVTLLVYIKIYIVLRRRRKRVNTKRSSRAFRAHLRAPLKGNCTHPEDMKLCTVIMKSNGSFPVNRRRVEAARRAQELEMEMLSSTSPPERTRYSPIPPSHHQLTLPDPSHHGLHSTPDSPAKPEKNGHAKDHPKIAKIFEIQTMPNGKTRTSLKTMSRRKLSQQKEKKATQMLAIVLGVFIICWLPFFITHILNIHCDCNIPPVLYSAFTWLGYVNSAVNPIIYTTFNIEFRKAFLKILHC
Description: (§1) All receptors tested were heterologously expressed CHO cells and IC50 values were determined by a non-linear, least squares regression analysis using MathIQ (ID Business Solution Ltd, UK). Ki was calculated using the equation of Cheng and Prusoff (1973, Biochem. Pharmacol 22:23099-3108) derived from the observed IC50 of the tested compound, the concentration of radioligand employed in the assay, and the historical values for the Kd of the ligand (obtained experimentally at MDS Pharma Services).
as §1, with “receptors” for “receptors tested”, “UK). K1” for “UK). Ki”, “calculated (Y.” for “calculated using the equation of”, “Cheng &” for “Cheng and”, “Prusoff 1973)” for “Prusoff (1973, Biochem. Pharmacol 22:23099-3108) derived”

[2] = test system: D1/D2; assay: D1/D2 affinity ratio; format: binding; details: present data
Description: as §1, with “receptors” for “receptors tested”, “UK). K1” for “UK). Ki”, “calculated (Y.” for “calculated using the equation of”, “Cheng &” for “Cheng and”, “Prusoff 1973)” for “Prusoff (1973, Biochem. Pharmacol 22:23099-3108) derived”

[3] = Catalepsy (bar test); format: in vivo, rat; details: rat, in vivo; present data; SC, 45 min time point
Description: (§2) Testing occurred in a plexiglas box (28 cm×45 cm×20 cm) containing a horizontal steel bar located 8 cm above floor level. […] After injection animals were returned to the test box and catalepsy testing occurred at 1, 15, 30, and 45 minutes after injection. Testing at each time point lasted 2 min after the forepaws of each rat was placed on the bar. Behavior was recorded with a video camera (Cohu, Poway, Calif.) and scored off-line. The cumulative time spent immobilized with both forelimbs on the horizontal bar was scored for each 2 min test epoch. Videos selected at random were scored independently by a second observer and a high inter-rater reliability was observed (R^2=0.93, F=393.4, p<0.05).
(§3) Catalepsy testing was conducted as described in Example 12.

[4] = test system: rats; assay: Catalepsy (bar test); format: in vivo, rat
Description: as §2, §3

[5] = test system: rats; assay: Latent inhibition; format: in vivo, rat
Description: Sensitization: Animals were removed from the colony and taken to a holding room where they received either IP d-AMPH or saline every Monday, Wednesday, and Friday. Doses started at 1 mg/kg and increased 1 mg/kg each week over 5 weeks to 5 mg/kg. 25 days after the induction phase, behavioral sensitization was assessed over 3 days in locomotor chambers (plexiglass box, 40 cm×40 cm×40 cm) where speed and distance traveled were recorded using Noldus Ethovision XT (Noldus, Leesburg, Va.). The first day consisted of a 2 hr acclimation session, and prior to counter balanced injections of either 0.5 mg/kg d-AMPH or saline on days 2 and 3 animals were acclimated for 1 hr. Experiments were run in two separate cohorts of 30 animals to minimize the time between testing sensitization and LI.
Latent Inhibition: LI tests were performed in rats treated with 1.0 mg/kg acute d-AMPH, sensitized rats, and drug-naive rats. LI testing began 5 days post-challenge of the escalating dose regime. Animals in both conditions (chronic saline or sensitized) were randomly assigned to either non-pre-exposed (NPE) or pre-exposed (PE) groups. Testing took place over 3 consecutive days. […] Animals in the PE group received 50 presentations of the CS (10 sec duration) per day at a variable interval for the first two days. Animals in the NPE group were placed in the chamber for an equal time as the PE animals. Conditioning (COND) consisted of 100 CS-US pairings. Latency to cross into the other compartment and the number of total beam breaks were recorded. Drug-naïve animals receiving acute 1.0 mg/kg AMPH were injected IP 45 min before the COND trial.
The effects of the two individual enantiomers of govadine on latent inhibition (LI) were also tested as described in Example 12.

[6] = target: T2, D1 (Homo sapiens, UniProt P21728); assay: Receptor binding, dopamine D1; design: host or cells: CHO cells; details: present data; comparison ligand 0.14 nM SCH-23390; read-out: D1 (Ki)
T2 sequence (P21728 whole entry): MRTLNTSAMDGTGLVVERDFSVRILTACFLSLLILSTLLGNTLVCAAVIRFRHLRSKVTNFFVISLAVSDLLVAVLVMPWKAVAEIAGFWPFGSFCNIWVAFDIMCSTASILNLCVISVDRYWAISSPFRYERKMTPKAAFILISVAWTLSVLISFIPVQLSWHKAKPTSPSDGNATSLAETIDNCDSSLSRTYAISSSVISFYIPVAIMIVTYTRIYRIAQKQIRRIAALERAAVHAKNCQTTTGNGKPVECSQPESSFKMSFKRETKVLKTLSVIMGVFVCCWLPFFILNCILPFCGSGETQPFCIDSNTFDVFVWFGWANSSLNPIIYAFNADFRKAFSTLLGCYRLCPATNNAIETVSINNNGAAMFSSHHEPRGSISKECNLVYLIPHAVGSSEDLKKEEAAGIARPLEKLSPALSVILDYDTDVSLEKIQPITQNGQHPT
Description: as §1
as §1, with “receptors” for “receptors tested”, “UK). K1” for “UK). Ki”, “calculated (Y.” for “calculated using the equation of”, “Cheng &” for “Cheng and”, “Prusoff 1973)” for “Prusoff (1973, Biochem. Pharmacol 22:23099-3108) derived”

[7] = test system: rats; assay: Amphetamine-induced locomotion (AIL); details: Rattus norvegicus, ip, 1 h, read-out: AIL (ED50)
Description: Animals were habituated to the locomotor arena for 1 hr on 4 consecutive days prior to testing. Locomotor activity was assessed on day 1 of habituation and treatment groups were assigned in a counter balanced fashion depending on locomotor activity on this day.
After d-AMPH/SAL injection, distance travelled was assessed for 1 hr. Distance travelled was recorded with Noldus Ethovision XT (Noldus, Leesburg, Va.) and analyzed off-line.
Amphetamine induced locomotion (AIL): Animals were habituated to locomotor arenas for 1 hr on 4 consecutive days prior to testing. Locomotor activity was assessed on day 1 of habituation and treatment groups were assigned in a counter-balanced manner determined by distance traveled on day 1. […] Distance traveled was recorded with Noldus Ethovision XT (Noldus, Leesburg, Va.) and analyzed off-line.

[8] = test system: rats; assay: Conditioned avoidance responding (CAR)
Description: Conditioned avoidance responding (CAR) was performed in a two-way avoidance procedure with drug naive rats in four shuttle boxes (Med Associates, Vt., USA) each consisting of two compartments separated by an open door. Each compartment contained a wall-mounted speaker, house light and 5 photocells to detect the location of the animal. All experimental protocols and data acquisition were controlled by custom programs written in MED-PC.
Before training, each animal received two acclimation sessions lasting 30 min with only the house light illuminated. […] Pairings of the conditioned stimulus (CS) (white noise, ˜60 dB) and the unconditioned stimulus (US) (footshock, 0.75 mA) were presented at random intervals with a mean of 60 sec. The CS was presented for 10 sec. During this time, if the animal moved to the opposite side of the box, the white noise was silenced, no foot shock delivered, and an avoidance response was scored. Upon termination of the 10 sec tone, if the animal had not moved to the opposite side of the box, a foot-shock was administered for 2 sec. […] Failure to avoid or escape constituted a response failure and was scored accordingly. After reaching a criterion of 90% avoidances for a block of 20 trials, usually achieved with ˜100 CS-US pairings, each animal advanced to the drug-testing phase. Animals not meeting the criterion by 120 pairings were excluded from the study.
Pairings were presented just as during training and were scored in the same fashion. The test trial consisted of 100 CS-US pairings.

[9] = test system: rats; assay: Microdialysis of prefrontal cortex and nucleus accumbens;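 also: dialysate collected every 10 min from freely moving rats, analysed by HPLC with electrochemical detection, after four stable baseline samples (under 10% variation) preceding drug dosing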
Description: Rats received subcutaneous injections of an analgesic (ketoprofen 0.05 mL or buprenorphine, 0.1 mL) and sterile saline (0.9% NaCl, ˜3 mL). Once shaved and cleaned, the heads were secured in the stereotaxic frame in flat skull position for bilateral implantation of stainless steel microdialysis guide cannulae (19 gauge×15 mm) in the nucleus accumbens (NAc) (from bregma +1.7 mm anterior and ±1.1 mm medial; from dura −1.0 mm ventral) or medial prefrontal cortex (mPFC) (+3.0 mm anterior, ±0.6 mm medial; −1.0 mm ventral). […] Rats were allowed to rest with heat support until they regained consciousness, and then given a one-week recovery period.
Microdialysis probes were assembled 1-2 days prior to microdialysis experiments. Probes were concentric in design, constructed from Filtral 12 AN69HF semi-permeable hollow fibres (2 mm length, 340 μm OD×4 mm, 65 kDalton molecular weight cut-off; Hospal, Neurnberg, Germany) and silica inlet-outlet lines (75/150 um ID/OD).
The day prior to microdialysis experiments, probes were connected to an Instech dual-channel liquid swivel (Plymouth Meeting, Pa.) and flushed with artificial cerebrospinal fluid (aCSF). […] Following DA recovery tests, probes were implanted via the guide cannulae (dialysis membrane spanned −4.8 to −6.8 mm ventrally for NAc; −1.6 to −3.6 mm for mPFC). Rats remained in the testing chamber overnight (14-16 hr) with aCSF perfusing continuously through the probes at 1 μL/min In the morning, microdialysis samples were collected at 10 min intervals and assayed for DA, DOPAC, homovanillic acid (HVA) and 5-HIAA content. Once baseline levels were determined to be stable for four consecutive samples (less than 10% fluctuation), the drug treatment phase of each experiment was initiated.
Microdialysis samples were analyzed immediately after collection using high pressure liquid chromatography (HPLC) with electrochemical detection. […] The mobile phase [70 mM sodium acetate buffer, 40 mg/L EDTA and 50 mg/L of sodium dodecyl sulfate (adjustable), pH 4.0, 10% methanol] flowed through the system at 0.17 mL/min EZChrome Elite software (Scientific Software, Pleasanton, Calif.) was used to acquire and analyze chromatographic data.
After the experiments, rats were deeply anesthetized, brains were removed and stored in 20% w/v sucrose and 4% v/v paraformaldehyde. Brains were sliced into 50 um coronal sections, stained with cresyl violet and examined for probe placement.
Microdialysis probes (2 mm active membrane) were implanted in the NAc and mPFC ˜16 hrs prior to start of the experiment and continuously perfused aCSF.

[10] = test system: rats; assay: Temporal order recognition (radial arm maze); details: 1.0 mg/kg govadine isomers, 5.0 mg/kg clozapine
Description: The task exploits a rat's natural preference for novel locations. Each animal received 3 separate trials where access to two arms of an eight arm radial arm maze was granted. During the first trial, two arms were selected at random for exploration, and animals were allowed to explore these arms for 2 min After this time, they were taken off the maze and returned to their home cage. 1 hour later they were placed back on the maze and two new arms were randomly selected for 2 min of exploration.
Time spent in each arm (recent and old) was recorded as well as total distance traveled and the total number of arm entries in Noldus EthoVision 3.1 (Leesburg, Va.).

[11] = target: T1, D2L; details: Xu, S. X. et al., 1989; comparison ligand 0.16 nM Spiperone; cited from earlier work
[12] = test system: D1/D2; details: cited from earlier work
[13] = test system: rats; details: Natesan et al., 2008; cited from earlier work
[14] = test system: rats; details: Natesan et al., 2008; listed as 1-SPD; cited from earlier work
[15] = test system: rats; details: Natesan et al., 2008; cited from earlier work; remark: listed apart in the source
[16] = target: T2, D1; details: read-out: D1 (Ki); Xu, S. X. et al., 1989; comparison ligand 0.14 nM SCH-23390; cited from earlier work
[17] = microdialysis, nucleus accumbens
[18] = microdialysis, prefrontal cortex

For `COc1cc2c(cc1O)CN1CCc3cc(OC)c(O)cc3C1C2` (racemic) [dl-govadine], the Ki [1] was 0.283 µM, the D1/D2 [2] was 0.023# and the ED50 at 45 min [3] was 4.7 mg/kg. The catalepsy observed ([4]; 1.0 mg/kg SC) was “mild motor suppression”, the catalepsy observed ([4]; 6.0 mg/kg SC) was “Strong and extended catalepsy” and the “catalepsy (immobilized contact time)” value ([4]; SC, across doses tested) was “dose-dependent increase”. The “latent inhibition in non-sensitized animals” value ([5]; 1.0 mg/kg SC before each pre-exposure session) was “no subsequent effect on LI”, the “latent inhibition in d-AMPH sensitized animals” value ([5]; 1.0 mg/kg SC before each pre-exposure, 5-week escalating d-AMPH) was “restored LI to levels observed in controls” and the “latent inhibition in acute d-AMPH-treated animals” value ([5]; treatment before each pre-exposure, 1.0 mg/kg d-AMPH before conditioning) was “restored LI”. The Ki [6] was 0.0067 µM, the ED50 at […] [7] was 1.7 mg/kg and the ED50 ([8]; Rattus norvegicus, sc, 20 min, read-out: CAR (ED50), present data, SC, 20 min post-injection) was 0.723 mg/kg. For the same compound, the “escapes in CAR” value ([8]; SC, 100 CS-US pairings) was “increase in escapes”, the “suppression of conditioned avoidance responding (avoidances)” value ([8]; SC, 100 CS-US pairings) was “dose-dependently suppressed avoidances” and the “CAR (ED50)” value ([8]; present data, SC, 20 min post-injection) was 0.720# mg/kg. The “effect of repeated treatment in CAR” value ([8]; repeated treatment, FIG. 14) was “Neither of these effects was observed”, the “DA efflux in NAc and mPFC compared to control” value ([9]; 1 mg/kg, Example 15) was “enhanced DA efflux” and the “5-HIAA in NAc” value [9, 17] was “No increase”. For the same compound, the “DOPAC in NAc” value [9, 17] was “Increases”, the “HVA in NAc” value [9, 17] was “Increases” and the “dopamine level in NAc” value [9, 17] was “increased”. The “5-HIAA in PFC” value [9, 18] was “No increase”, the “DOPAC in PFC” value [9, 18] was “Increases” and the “HVA in PFC” value [9, 18] was “Increases”. For the same compound, the “dopamine level in PFC” value [9, 18] was “increased”.
In the case of `CN1CCN(C2=Nc3cc(Cl)ccc3Nc3ccccc32)CC1` [Clozapine, reference compound], the “Arm Entries” value ([10]; 45 min. delay) is reported as 7.0 ± 1.9, the “Distance Travelled” value ([10]; 45 min. delay) is reported as 1286 ± 177 and the “Arm Entries” value ([10]; 4 hr. delay) is reported as 6.0 ± 1.6. For the same compound, the “Distance Travelled” value ([10]; 4 hr. delay) was 1098 ± 74.
For `COc1cc2c(cc1O)[C@@H]1Cc3ccc(O)c(OC)c3CN1CC2` [l-Stepholidine, l-stepholidine], the Ki [11] is listed as 0.085 µM, the D1/D2 ([12]; Natesan et al., 2008) is listed as 0.850* and the D1/D2 ([12]; Xu, S. X. et al., 1989) is listed as 0.150**. The “AIL (ED50)” value [13] was 2.36* mg/kg, the “CAR (ED50)” value [14] was 0.27 mg/kg and the “Catalepsy (ED50)” value [15] was 3.6 mg/kg. The Ki [16] was 0.013 µM.
